Like-named read-outs stand apart in the source and are kept apart here.
Legend:
[1] = test system: Z-138 non-Hodgkin's lymphoma cells; assay: In vitro anti-proliferation assay of Z-138 cells (CellTiter-Glo, 6 days); assay type: cell-based, human; details: read-out: IC50 (nM), in vitro anti-proliferative activity on Z-138 tumor cells
Method: The plate was incubated at 37° C., CO2 and 100% relative humidity for 6 days. Samples were processed using Promega CellTiter-Glo Luminescent Cell Viability Assay Kit (Promega-G7571) standard method, and the luminescent signal was detected on a TECAN Spark®10M plate reader. Raw data were used to calculate the inhibition rate of the test compounds using the following equation: […]
(§1) The inhibition rates were imported into Excel separately to calculate the inhibition rates of compounds at different concentrations, and then XLfit software was used to plot inhibition curves and calculate relevant parameters, including minimum inhibition rate, maximum inhibition rate and IC50.

[2] = in vivo; details: for AUC / clearance / half-life / bioavailability: male, CD-1, mouse, in vivo; for Clearance rate CL / Concentration integral AUC / Half-life T1/2 / Bioavailability F: CD-1 mice
Method: Experimental objective: To study the pharmacokinetic parameters of the compounds in CD-1 mice
Animal experimental design: Male CD-1 mice (28.08 to 29.01 g, 6 to 7 weeks old), purchased from Shanghai Family Planning Research Institute, n=2/group, 4 mice in total; blood collection time points (h): 0.083 (intravenous injection only), 0.25 (intragastric administration only), 0.5, 1, 2, 4, 8, 10 and 24; compound dose by tail vein injection: 1 mg/kg; single dose by intragastric administration: 5 mg/kg; intravenous and intragastric administration vehicles: 20% N,N-dimethylacetamide aqueous solution, 20% hydroxypropyl-β-cyclodextrin aqueous solution, 5% DMSO/50% PEG400/45% water for injection or 10% Solutol/30% PEG400/60% water for injection. All animals had free access to water during the experiment, fasted overnight before administration, and resumed food supply 4 hours after administration. The entire animal experiment complied with the Institutional Animal Care and Use Committee (IACUC) animal welfare.
Sample collection and storage: After administration, approximately 0.03 mL of blood was collected from the saphenous vein of the mouse at each time point into a pre-frozen commercial EDTA-K2 tube, and placed on wet ice until centrifugation. Blood samples were centrifuged at 4° C., 3,200 g for 10 min. Plasma was collected separately, transferred to a pre-labeled 96-well plate, fast frozen on dry ice, and stored at −70±10° C. until LC-MS/MS analysis.
Pre-treatment of plasma samples: 3 μL of unknown, standard curve, QC, diluted QC and single and double blank samples were taken and placed in 1.5 mL tubes, and 60 μL of internal standard solution (internal standard: Labetalol 100 ng/mL acetonitrile solution, double blank with the same volume of pure acetonitrile) was added. The samples were vortexed for at least 15 seconds, and centrifuged at 4° C., 12,000 g for 15 min. 50 μL of the supernatant was taken and placed on a clean 96-well plate, and 200 μL of 70% acetonitrile was added. The plate was vortex at 800 rpm for 10 min, and centrifuged at 4° C., 3,220 g for 5 min. 2.0 μL of the supernatant was taken for LC-MS/MS analysis. 10-fold sample dilution procedure: 2 μL of the sample was added to 18 μL of blank matrix; 2-fold sample dilution procedure: 2 μL of the sample was added to 2 μL of blank matrix. Plasma was processed in the same manner as undiluted samples. The linear range was 4.00 to 6000 nM. Plasma concentrations would be analyzed with Triple Quad 6500 Plus, and pharmacokinetic parameters would be calculated with Phoenix WinNonlin 6.3.

[3] = biological target: PRMT5 enzyme (Homo sapiens (Human), UniProt O14744); assay: PRMT5 enzyme inhibitory activity assay (LANCE Ultra TR-FRET); assay type: biochemical
Method: Experimental objective: To test the inhibitory effect of compounds on PRMT5 enzyme activity
Experimental materials: PRMT5 enzyme
The plate was incubated at 25° C. for 30 min, then added with substrate, and reacted at 25° C. for 90 min. After 90 min, the detection reagent was added to the 384-well plate using PerkinElmer LANCE Ultra TR-FRET standard method to combine with the enzyme-substrate reaction product. […] Raw data were used to calculate the inhibition rate of the test compounds using the following equation: […]
as §1

[4] = injection administration (1 mg/kg)

PRMT5 enzyme, sequence (O14744 whole entry): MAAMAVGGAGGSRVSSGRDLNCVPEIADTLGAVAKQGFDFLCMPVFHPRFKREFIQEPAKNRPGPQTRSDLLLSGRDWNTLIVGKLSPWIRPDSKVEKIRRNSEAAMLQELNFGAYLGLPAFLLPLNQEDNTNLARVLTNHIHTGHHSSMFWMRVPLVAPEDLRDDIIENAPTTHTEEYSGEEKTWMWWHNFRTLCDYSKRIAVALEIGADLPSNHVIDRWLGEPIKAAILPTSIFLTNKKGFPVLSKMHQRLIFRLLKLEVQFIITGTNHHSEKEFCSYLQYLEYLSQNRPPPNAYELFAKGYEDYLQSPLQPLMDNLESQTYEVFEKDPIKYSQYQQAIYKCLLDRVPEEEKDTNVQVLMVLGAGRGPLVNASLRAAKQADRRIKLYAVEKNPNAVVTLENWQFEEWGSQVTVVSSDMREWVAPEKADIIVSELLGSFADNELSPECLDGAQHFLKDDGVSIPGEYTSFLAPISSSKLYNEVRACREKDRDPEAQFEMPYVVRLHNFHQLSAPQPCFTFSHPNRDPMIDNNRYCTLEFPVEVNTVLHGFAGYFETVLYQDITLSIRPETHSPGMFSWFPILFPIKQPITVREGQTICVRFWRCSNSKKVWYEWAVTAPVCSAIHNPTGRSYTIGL
PRMT5 enzyme, sequence (Q9BQA1 whole entry partner): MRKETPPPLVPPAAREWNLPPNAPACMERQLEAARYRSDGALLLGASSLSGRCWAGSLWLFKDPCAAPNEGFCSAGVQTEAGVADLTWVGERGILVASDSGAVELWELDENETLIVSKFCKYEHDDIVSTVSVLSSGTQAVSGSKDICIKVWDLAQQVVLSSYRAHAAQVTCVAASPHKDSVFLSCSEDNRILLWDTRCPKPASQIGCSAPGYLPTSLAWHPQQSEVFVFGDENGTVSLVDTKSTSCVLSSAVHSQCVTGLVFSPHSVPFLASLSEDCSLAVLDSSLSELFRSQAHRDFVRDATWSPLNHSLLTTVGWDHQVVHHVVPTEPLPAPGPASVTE

| IC50 ([1]; Homo sapiens, Z-138, 144 h) | Structure (SMILES) | IC50 [1] | IC50 [3] | Clearance rate CL [2, 4] | Concentration integral AUC [2, 4] | Half-life T1/2 [2, 4] | Bioavailability F ([2]; oral administration (5 mg/kg)) | Concentration integral AUC ([2]; oral administration (5 mg/kg)) | other results |
| --- | --- | --- | --- | --- | --- | --- | --- | --- | --- |
| 18 nM | O=C(NC[C@H](O)CN1CCc2ccccc2C1)c1ccc2c(c1)NC(=O)C1(CC(O)C1)O2 (stereo partly drawn) [Compound 18] |  |  |  |  |  |  |  | AUC ([2]; 1 mg/kg): 0.545 µM·h; clearance ([2]; 1 mg/kg): 71.3 mL/min/kg; half-life ([2]; 1 mg/kg): 24.6 min; AUC ([2]; po, 5 mg/kg): 0.164 µM·h; bioavailability ([2]; po, 5 mg/kg): 6.02% |
| 4 nM | O=C1CC2(C1)Oc1ccc(C(=O)NC[C@H](O)CN3CCc4ccccc4C3)cc1NC2=O [Compound 27] |  |  |  |  |  |  |  |  |
| 23 nM | O=C(NC[C@H](O)CN1CCc2ccccc2C1)c1ccc2c(c1)NC(=O)C1(CN(CC(F)(F)F)C1)O2 [Compound 10] |  |  |  |  |  |  |  | AUC ([2]; 1 mg/kg): 0.785 µM·h; clearance ([2]; 1 mg/kg): 42.1 mL/min/kg; half-life ([2]; 1 mg/kg): 33 min; AUC ([2]; po, 5 mg/kg): 0.572 µM·h; bioavailability ([2]; po, 5 mg/kg): 14.6% |
| 23 nM | COCCOC1CC2(C1)Oc1ccc(C(=O)NC[C@H](O)CN3CCc4ccccc4C3)cc1NC2=O (stereo partly drawn) [Compound 23] |  | 18 nM |  |  |  |  |  |  |
| 19 nM | O=C(NC[C@H](O)CN1CCc2ccccc2C1)c1cc2c(cc1F)OC1(CC1)C(=O)N2 [Compound 32] |  |  |  |  |  |  |  |  |
| 18 nM | CCOC1CC2(C1)Oc1ccc(C(=O)NC[C@H](O)CN3CCc4ccccc4C3)cc1NC2=O (stereo partly drawn) [Compound 21] |  |  |  |  |  |  |  |  |

Second part, the compound before the results:

| Structure (SMILES) | IC50 ([1]; Homo sapiens, Z-138, 144 h) | IC50 [1] | IC50 [3] | Clearance rate CL [2, 4] | Concentration integral AUC [2, 4] | Half-life T1/2 [2, 4] | Bioavailability F ([2]; oral administration (5 mg/kg)) | Concentration integral AUC ([2]; oral administration (5 mg/kg)) | other results |
| --- | --- | --- | --- | --- | --- | --- | --- | --- | --- |
| COCCOC1CC2(C1)Oc1ccc(C(=O)NC[C@H](O)CN3CCc4ccccc4C3)cc1NC2=O (stereo partly drawn) [Compound 24] |  | 22 nM | 15 nM |  |  |  |  |  |  |
| O=C(NC[C@H](O)CN1CCc2ccccc2C1)c1ccc2c(c1)NC(=O)C1(CCOCC1)O2 [Compound 4] |  |  | 22 nM | 63.3 mL/min/kg | 583 nM·h | 16.2 min | 21.5% | 626 nM·h |  |
| COc1cc2c(cc1C(=O)NC[C@H](O)CN1CCc3ccccc3C1)NC(=O)C1(CC1)O2 [Compound 47] |  | 66.8 nM | 42 nM |  |  |  |  |  |  |
| O=C(NC[C@H](O)CN1CCc2ccccc2C1)c1ccc2c(c1)NC(=O)[C@@]1(CCOC1)O2 [Compound 35] |  | 22 nM | 11 nM |  |  |  |  |  |  |
| O=C(NC[C@H](O)CN1CCc2ccccc2C1)c1cnc2c(c1)NC(=O)C1(CC(F)(F)C1)O2 [Compound 29] |  | 6 nM | 16 nM | 37.9 mL/min/kg | 981 nM·h | 35.4 min | 8.99% | 441 nM·h |  |
| O=C(NC[C@H](O)CN1CCc2ccccc2C1)c1ccc2c(c1)NC(=O)C1(CC1)O2 [Compound 7] |  | 73 nM |  | 17.7 mL/min/kg | 2313 nM·h | 82.8 min | 64.2% | 7419 nM·h |  |
| O=C(NC[C@H](O)CN1CCc2ccccc2C1)c1ccc2c(c1)NC(=O)C1(CCCCC1)O2 [Compound 3] |  | 78 nM | 18 nM | 78.1 mL/min/kg | 474 nM·h | 9.6 min | 7.2% | 171 nM·h |  |
| CCOC1CC2(C1)Oc1ccc(C(=O)NC[C@H](O)CN3CCc4ccccc4C3)cc1NC2=O (stereo partly drawn) [Compound 22] |  | 12 nM |  |  |  |  |  |  |  |
| O=C(NC[C@H](O)CN1CCc2ccccc2C1)c1ccc2c(c1)NC(=O)C1(CCCC1)O2 [Compound 2] |  | 24 nM | 128 nM | 39.7 mL/min/kg | 967 nM·h | 33.6 min | 8.6% | 417 nM·h |  |

— patent publication US20230365558A1, “TETRAHYDROISOQUINOLINE DERIVATIVE AND USE THEREOF” (MEDSHINE DISCOVERY INC., priority 2020, published 2023)
